Tests used:
mice [1] = assay: Interaction with barbital sodium (sleep induced by barbital sodium in mice); assay type: in vivo; details: barbital sodium 180 mg.kg^-1 i.p.
Procedure: Interaction with barbital sodium
At time 0, the mice receive, by intraperitoneal or oral administration, distilled water or the medicament according to the invention. After 30 minutes, they receive barbital sodium (180 mg.kg^-1) by intraperitoneal administration.

mice [2] = assay: Anti-reserpine activity in mice (reserpine hypothermia); assay type: in vivo; details: reserpine 2.5 mg.kg^-1 i.p. 4 h before
Procedure: Anti-reserpine activity in mice
At time 0, the mice receive reserpine (2.5 mg.kg^-1) by intraperitoneal administration.
After 4 hours, when the hypothermia is significant (30 to 31°C.), the substance to be studied is administered intraperitoneally or orally. The rectal temperature is measured, using a probe, carrying a thermoelectric couple, inserted to a constant depth, every 30 minutes for 2 hours.

In the case of CC1CC(c2ccc(Cl)cc2)C(c2ccccc2)C(=O)O1 (stereo not drawn) [Example I, trans-4-(4'-chlorophenyl)-6-methyl-3-phenyl-3,4,5,6-tetrahydropyrone-2], the “Time in minutes for induction of sleep” value (mice [1]; 4 mg/kg intraperitoneal) is reported as 22 min, the “Time in minutes of sleep” value (mice [1]; 4 mg/kg intraperitoneal) is reported as 37 ± 13 min and the “% of mice which have slept” value (mice [1]; 4 mg/kg oral) is reported as 25%. The “Time in minutes for induction of sleep” value (mice [1]; 4 mg/kg oral) was 33 min, the “Time in minutes of sleep” value (mice [1]; 4 mg/kg oral) was 56 min and the “% of mice which have slept” value (mice [1]; 8 mg/kg intraperitoneal) was 83%. The “Time in minutes for induction of sleep” value (mice [1]; 8 mg/kg intraperitoneal) was 30 min, the “Time in minutes of sleep” value (mice [1]; 8 mg/kg intraperitoneal) was 25 ± 4 min and the “% of mice which have slept” value (mice [1]; 8 mg/kg oral) was 42%. For the same compound, the “Time in minutes for induction of sleep” value (mice [1]; 8 mg/kg oral) was 32 min, the “Time in minutes of sleep” value (mice [1]; 8 mg/kg oral) was 43 min and the “% of mice which have slept” value (mice [1]; 16 mg/kg intraperitoneal) was 33%. For the same compound, the “Time in minutes for induction of sleep” value (mice [1]; 16 mg/kg intraperitoneal) was 38 min, the “Time in minutes of sleep” value (mice [1]; 16 mg/kg intraperitoneal) was 14 min and the “% of mice which have slept” value (mice [1]; 16 mg/kg oral) was 0%. For the same compound, the “Time in minutes for induction of sleep” value (mice [1]; 16 mg/kg oral) was 0 min, the “Time in minutes of sleep” value (mice [1]; 16 mg/kg oral) was 0 min and the “% of mice which have slept” value (mice [1]; 32 mg/kg intraperitoneal) was 0%. The “Time in minutes for induction of sleep” value (mice [1]; 32 mg/kg intraperitoneal) was 0 min, the “Time in minutes of sleep” value (mice [1]; 32 mg/kg intraperitoneal) was 0 min and the “% of mice which have slept” value (mice [1]; 32 mg/kg oral) was 00%. For the same compound, the “Time in minutes for induction of sleep” value (mice [1]; 32 mg/kg oral) was 0 min, the “Time in minutes of sleep” value (mice [1]; 32 mg/kg oral) was 0 min and the “Rectal temperatures °C. ± SD” value (mice [2]; Table IIa, 4 mg/kg oral, 30 min) was 30.6 ± 0.39 °C. For the same compound, the “Rectal temperatures °C. ± SD” value (mice [2]; Table IIa, 4 mg/kg oral, 60 min) was 30.6 ± 0.45 °C, the “Rectal temperatures °C. ± SD” value (mice [2]; Table IIa, 4 mg/kg oral, 90 min) was 30.7 ± 0.59 °C and the “Rectal temperatures °C. ± SD” value (mice [2]; Table IIa, 4 mg/kg oral, 120 min) was 30.4 ± 0.67 °C. For the same compound, the “Rectal temperatures °C. ± SD” value (mice [2]; Table IIa, 8 mg/kg oral, 30 min) was 31.1 ± 0.36 °C, the “Rectal temperatures °C. ± SD” value (mice [2]; Table IIa, 8 mg/kg oral, 60 min) was 31.4 ± 0.56 °C and the “Rectal temperatures °C. ± SD” value (mice [2]; Table IIa, 8 mg/kg oral, 90 min) was 31.5 ± 0.57 °C. For the same compound, the “Rectal temperatures °C. ± SD” value (mice [2]; Table IIa, 8 mg/kg oral, 120 min) was 31.3 ± 0.56 °C, the “Rectal temperatures °C. ± SD” value (mice [2]; Table IIa, 16 mg/kg oral, 30 min) was 31.4 ± 0.41 °C and the “Rectal temperatures °C. ± SD” value (mice [2]; Table IIa, 16 mg/kg oral, 60 min) was 32.6 ± 0.56 °C. The “Rectal temperatures °C. ± SD” value (mice [2]; Table IIa, 16 mg/kg oral, 90 min) was 32.8 ± 0.53 °C, the “Rectal temperatures °C. ± SD” value (mice [2]; Table IIa, 16 mg/kg oral, 120 min) was 32.8 ± 0.45 °C and the “Rectal temperatures °C. ± SD” value (mice [2]; Table IIa, 32 mg/kg oral, 30 min) was 31.4 ± 0.31 °C. For the same compound, the “Rectal temperatures °C. ± SD” value (mice [2]; Table IIa, 32 mg/kg oral, 60 min) was 32.6 ± 0.44 °C, the “Rectal temperatures °C. ± SD” value (mice [2]; Table IIa, 32 mg/kg oral, 90 min) was 32.9 ± 0.41 °C and the “Rectal temperatures °C. ± SD” value (mice [2]; Table IIa, 32 mg/kg oral, 120 min) was 32.8 ± 0.38 °C. For the same compound, the “Rectal temperatures °C. ± SD” value (mice [2]; Table IIa, 64 mg/kg oral, 30 min) was 33.8 ± 0.58 °C, the “Rectal temperatures °C. ± SD” value (mice [2]; Table IIa, 64 mg/kg oral, 60 min) was 34.5 ± 0.33 °C and the “Rectal temperatures °C. ± SD” value (mice [2]; Table IIa, 64 mg/kg oral, 90 min) was 34.4 ± 0.39 °C. For the same compound, the “Rectal temperatures °C. ± SD” value (mice [2]; Table IIa, 64 mg/kg oral, 120 min) was 34.4 ± 0.35 °C, the “Rectal temperatures °C. ± SD” value (mice [2]; Table IIa, 128 mg/kg oral, 30 min) was 33.1 ± 0.56 °C and the “Rectal temperatures °C. ± SD” value (mice [2]; Table IIa, 128 mg/kg oral, 60 min) was 34.1 ± 0.56 °C. For the same compound, the “Rectal temperatures °C. ± SD” value (mice [2]; Table IIa, 128 mg/kg oral, 90 min) was 34.3 ± 0.58 °C, the “Rectal temperatures °C. ± SD” value (mice [2]; Table IIa, 128 mg/kg oral, 120 min) was 34.2 ± 0.53 °C and the “Rectal temperatures °C. ± SD” value (mice [2]; Table IIa, 256 mg/kg oral, 30 min) was 33.5 ± 0.47 °C. The “Rectal temperatures °C. ± SD” value (mice [2]; Table IIa, 256 mg/kg oral, 60 min) was 35.2 ± 0.15 °C, the “Rectal temperatures °C. ± SD” value (mice [2]; Table IIa, 256 mg/kg oral, 90 min) was 35.3 ± 0.34 °C and the “Rectal temperatures °C. ± SD” value (mice [2]; Table IIa, 256 mg/kg oral, 120 min) was 35.1 ± 0.33 °C. For the same compound, the “Rectal temperatures °C. ± SD” value (mice [2]; 4 mg/kg intraperitoneal, 30 min) was 32.7 ± 0.56 °C, the “Rectal temperatures °C. ± SD” value (mice [2]; 4 mg/kg intraperitoneal, 60 min) was 33.7 ± 0.47 °C and the “Rectal temperatures °C. ± SD” value (mice [2]; 4 mg/kg intraperitoneal, 90 min) was 33.1 ± 0.39 °C. For the same compound, the “Rectal temperatures °C. ± SD” value (mice [2]; 4 mg/kg intraperitoneal, 120 min) was 32.2 ± 0.46 °C, the “Rectal temperatures °C. ± SD” value (mice [2]; 8 mg/kg intraperitoneal, 30 min) was 33.1 ± 0.32 °C and the “Rectal temperatures °C. ± SD” value (mice [2]; 8 mg/kg intraperitoneal, 60 min) was 34.1 ± 0.24 °C. The “Rectal temperatures °C. ± SD” value (mice [2]; 8 mg/kg intraperitoneal, 90 min) was 34.0 ± 0.38 °C, the “Rectal temperatures °C. ± SD” value (mice [2]; 8 mg/kg intraperitoneal, 120 min) was 33.6 ± 0.49 °C and the “Rectal temperatures °C. ± SD” value (mice [2]; 16 mg/kg intraperitoneal, 30 min) was 35.3 ± 0.51 °C. For the same compound, the “Rectal temperatures °C. ± SD” value (mice [2]; 16 mg/kg intraperitoneal, 60 min) was 35.7 ± 0.34 °C, the “Rectal temperatures °C. ± SD” value (mice [2]; 16 mg/kg intraperitoneal, 90 min) was 35.3 ± 0.37 °C and the “Rectal temperatures °C. ± SD” value (mice [2]; 16 mg/kg intraperitoneal, 120 min) was 35.0 ± 0.44 °C. The “Rectal temperatures °C. ± SD” value (mice [2]; 32 mg/kg intraperitoneal, 30 min) was 34.8 ± 0.48 °C, the “Rectal temperatures °C. ± SD” value (mice [2]; 32 mg/kg intraperitoneal, 60 min) was 36.2 ± 0.38 °C and the “Rectal temperatures °C. ± SD” value (mice [2]; 32 mg/kg intraperitoneal, 90 min) was 35.6 ± 0.38 °C. For the same compound, the “Rectal temperatures °C. ± SD” value (mice [2]; 32 mg/kg intraperitoneal, 120 min) was 35.7 ± 0.37 °C.

From patent US4287206A, “Halogen derivatives of 8-hydroxycarboxylic acids; the processes for their preparation and medicaments in which they are present” (priority 1978, dated 1981)
